Laboratory results: PubChem BioAssay (NCI)
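These data come from cells grown in 96-well plates and exposed to compound for 48 hours at five concentrations. Definition used: TGI = concentration required for complete inhibition of growth.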

Experiments:
Experiment in all cases: DTP human tumour cell line panel, 48 h
[1] = tested on: SF-539 CNS
[2] = tested on: NCI/ADR-RES ovarian
[3] = tested on: U251 CNS
[4] = tested on: SN12C renal
[5] = tested on: A549 NSCLC
[6] = tested on: HOP-62 NSCLC
[7] = tested on: HT29 colon
[8] = tested on: RPMI-8226 leukemia
[9] = tested on: NCI-H522 lung
[10] = tested on: OVCAR-3 ovarian
[11] = tested on: SK-MEL-5 melanoma
[12] = tested on: COLO 205 colon
[13] = tested on: IGROV1 ovarian
[14] = tested on: UACC-257 melanoma
[15] = tested on: HS 578T breast
[16] = tested on: A498 renal
[17] = tested on: SR leukemia
[18] = tested on: SW-620 colon
[19] = tested on: ACHN renal
[20] = tested on: KM12 colon
[21] = tested on: MDA-MB-435
[22] = tested on: RXF 393 renal
[23] = tested on: UACC-62 melanoma
[24] = tested on: HCT-116 colon
[25] = tested on: NCI-H23 lung
[26] = tested on: OVCAR-8 ovarian
[27] = tested on: 786-0 renal
[28] = tested on: MDA-MB-231 breast
[29] = tested on: MDA-N
[30] = tested on: OVCAR-5 ovarian
[31] = tested on: SNB-19 CNS
[32] = tested on: DU-145 prostate
[33] = tested on: SF-295 CNS
[34] = tested on: UO-31 renal
[35] = tested on: HCT-15 colon
[36] = tested on: SF-268 CNS
[37] = tested on: CCRF-CEM leukemia
[38] = tested on: SK-OV-3 ovarian
[39] = tested on: TK-10 renal
[40] = tested on: PC-3 prostate
[41] = tested on: LOX IMVI melanoma
[42] = tested on: NCI-H460 lung
[43] = tested on: MCF7 breast
[44] = tested on: K-562 leukemia
[45] = tested on: NCI-H226 lung
[46] = tested on: HL-60(TB) leukemia
[47] = tested on: MOLT-4 leukemia
[48] = tested on: CAKI-1 renal
[49] = tested on: M14 melanoma
[50] = tested on: SK-MEL-2 melanoma
[51] = tested on: T-47D breast

## COc1ccc(C2C=C(c3ccccc3)Nc3nnnn32)cc1 (stereo unspecified)
[1]
  TGI: 53.1 µM
[2]
  TGI: > 100 µM
[3]
  TGI: 56.1 µM
[4]
  TGI: > 100 µM
[5]
  TGI: > 100 µM
[6]
  TGI: 66.8 µM
[7]
  TGI: 34.2 µM
[8]
  TGI: 80.2 µM
[9]
  TGI: 57.7 µM
[10]
  TGI: 77.8 µM
[11]
  TGI: > 100 µM
[12]
  TGI: > 100 µM
[13]
  TGI: > 100 µM
[14]
  TGI: > 100 µM
[15]
  TGI: > 100 µM
[16]
  TGI: > 100 µM
[17]
  TGI: > 100 µM
[18]
  TGI: > 100 µM
[19]
  TGI: 60.3 µM
[20]
  TGI: 34.8 µM
[21]
  TGI: > 100 µM
[22]
  TGI: 50.9 µM
[23]
  TGI: > 100 µM
[24]
  TGI: 29.3 µM
[25]
  TGI: > 100 µM
[26]
  TGI: > 100 µM
[27]
  TGI: 91.1 µM
[28]
  TGI: 90.5 µM
[29]
  TGI: > 100 µM
[30]
  TGI: > 100 µM
[31]
  TGI: > 100 µM
[32]
  TGI: > 100 µM
[33]
  TGI: 88.3 µM
[34]
  TGI: > 100 µM
[35]
  TGI: > 100 µM
[36]
  TGI: > 100 µM
[37]
  TGI: > 100 µM
[38]
  TGI: 93 µM
[39]
  TGI: 29.8 µM
[40]
  TGI: > 100 µM
[41]
  TGI: > 100 µM
[42]
  TGI: > 100 µM
[43]
  TGI: 84.4 µM
[44]
  TGI: > 100 µM
[45]
  TGI: > 100 µM
[46]
  TGI: > 100 µM
[47]
  TGI: > 100 µM
[48]
  TGI: > 100 µM
[49]
  TGI: > 100 µM
[50]
  TGI: > 100 µM
[51]
  TGI: 60.4 µM
